Like-named read-outs stand apart in the source and are kept apart here.
How the values were obtained:
[1] = system: T-tropic HIV; conditions: patients that are dual tropic or where only the T-tropic form is present; cited from earlier work
[2] = molecular target: T1, CXCR4 receptor (Homo sapiens, UniProt P61073); test: Functional FLIPR assay (block of SDF-1 alpha induced [Ca2+]i change); type: cell-based; conditions: HEK-293 cells with human CXCR4 BacMam and Gqi5 BacMam; antagonism of SDF-1 alpha; read-out: Functional assay (pIC50) (converted)
T1 construct: expressed in transfected cells; host or cells: HEK-293 cells (stably expressing human macrophage scavenging receptor) transduced with human CXCR4 BacMam and Gqi5 BacMam
T1 sequence (P61073 whole entry): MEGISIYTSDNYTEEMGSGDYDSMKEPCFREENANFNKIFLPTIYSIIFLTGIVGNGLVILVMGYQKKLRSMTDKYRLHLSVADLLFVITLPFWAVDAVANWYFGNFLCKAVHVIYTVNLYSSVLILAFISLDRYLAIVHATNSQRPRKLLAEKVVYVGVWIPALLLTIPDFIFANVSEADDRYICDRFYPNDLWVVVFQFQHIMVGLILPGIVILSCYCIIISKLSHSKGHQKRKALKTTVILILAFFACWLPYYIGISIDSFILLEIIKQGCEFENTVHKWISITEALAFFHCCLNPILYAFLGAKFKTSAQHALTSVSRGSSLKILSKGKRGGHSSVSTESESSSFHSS

[3] = system: HIV-1 IIIB strain, T-tropic (CXCR4 utilizing); test: HOS HIV-1 infectivity assay; type: cell-based
In short: (§1)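 HOS cells expressing hCXCR4/hCCR5/hCD4 with an HIV-LTR-luciferase reporter were seeded in DMEM with 2% FCS and cultured 24 h at 37 °C. Compound was added 1 h before virus (~2 million RLU/well), then incubated 96 h. Infection was read by Steady-Glo luciferase; viability of uninfected cultures by CellTiter-Glo.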

[4] = system: HIV-1 gp160 (HXB2 strain) mediated fusion with HOS (hCXCR4/hCCR5/hCD4/pHIV-LTR-luciferase) cells; test: Cell/cell fusion assay (HEK-293 expressing HIV-1 tat, rev, gp160 with HOS hCXCR4/hCCR5/hCD4/pHIV-LTR-luciferase cells); type: cell-based; conditions: Homo sapiens, HEK293; luciferase readout after 24 h; read-out: Fusion assay (pIC50) (converted)
In short: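 HEK-293 cells BacMam-transduced (MOI 10 each, 2 mM butyric acid, 24 h) to express HIV-1 tat, rev and HXB2 gp160 were mixed with HOS hCXCR4/hCCR5/hCD4 LTR-luciferase cells, 20,000 each per well, on DMSO compound spots in 2% FCS media. Fusion read as luciferase luminescence after 24 h at 37 °C.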

[5] = Compound cytotoxicity in the absence of virus (CellTiter-Glo); type: cell-based; conditions: human; non-infected HOS cultures, cell viability; read-out: Cytotox (pIC50) (converted)
In short: as §1

Row | Structure (SMILES) | T-tropic HIV viral load [1] | IC50 [2] [µM] | IC50 ([3]; Human immunodeficiency virus 1, IIIB, HOS, 96 h, read-out: HOS (3B) (μM)) [µM] | IC50 ([3]; Human immunodeficiency virus 1, IIIB, read-out: Activity Level) [µM] | IC50 [4] [µM] | IC50 at 96 h [5] [µM] | IC50 ([3]; Human immunodeficiency virus 1, IIIB, HOS HIV anti-infectivity assay, strain not named in Table 2, read-out: Activity Level) [µM] | IC50 ([3]; Human immunodeficiency virus 1, HOS cells, HIV-1 IIIB, 96 h, luciferase, read-out: HOS (3B)) [µM]
1 | c1cc(CN2CCCNCCNCCCNCC2)ccc1CN1CCCNCCNCCCNCC1 [AMD-3100] | significantly reduce T-tropic HIV viral load |  |  |  |  |  |  | 
2 | NCCCCN(Cc1cn2cc(C(F)(F)F)cc(Cl)c2n1)C1CCCc2cccnc21 (centres unmarked) [Example 17, N-{[8-Chloro-6-(trifluoromethyl)imidazo[1,2-a]pyridin-2-yl]methyl}-N-(5,6,7,8-tetrahydro-8-quinolinyl)-1,4-butanediamine] |  | 0.347 | 0.3 | 0.1 to 0.5 | 3.89 | > 100 |  | 
3 | NCCCCN(Cc1cn2ccc(C(F)(F)F)cc2n1)C1CCCc2cccnc21 (centres unmarked) [Example 6, N-(5,6,7,8-Tetrahydro-8-quinolinyl)-N-{[7-(trifluoromethyl)imidazo[1,2-a]pyridin-2-yl]methyl}-1,4-butanediamine] |  | 2.19 |  |  | 4.47 | > 100 | 0.5 to 10 | 1.4
